Columns and labels:
[1] = system: Oxygen consumption (mitochondrial function); experiment: Oxygen consumption assay (MitoXpress probe); format: cell-based; settings: MitoXpress probe signal, kinetic analysis at 37° C. for 5 hours, compared to untreated cells
Source text: Oxygen consumption is one of the most informative and direct measures of mitochondrial function and can be measured, for example, by using the MitoXpress® assay (Luxcel MX-2001, Luxcel Biosciences). The MitoXpress® probe is one of a family of phosphorescent oxygen sensitive probes. The assay exploits the ability of oxygen to quench the excited state of the MitoXpress® probe. As the test material respires (i.e. the cells), oxygen is depleted in the surrounding solution/environment, which increases the probe phosphorescence signal. Changes in oxygen consumption reflecting changes in mitochondrial activity are seen as changes in the MitoXpress® probe signal over time.
Cells were seeded in 96 well black plates with transparent bottoms (Greiner Bio-One cat. no. 655090) at a density of 50′000 cells/well in a final volume of 100 μL. After 24 hours the incubation media was removed and 150 μL of fresh media containing inhibitors at different concentrations was added to each well. Then, 10 μL of MitoXpress® and 150 μL mineral oil were added per well. Reading from the top of the plate, kinetic analysis was performed at 37° C. for 5 hours using a Synergy 4 plate reader (BioTek) and Time-resolved Fluoresence (TRF) wavelengths of 380/11 nm excitation and 650/20 nm emission or 665/40 emission (30 microsecond delay time, 100 microsecond integration time, gain or sensitivity settings set at either medium or high). IC50s were calculated as the concentration that inhibits 50% of the phosphorescent oxygen sensitive probe signal (MitoXpress®) as compared to untreated cells.

HeLa galactose cells = experiment: Cell growth and proliferation assay of HeLa galactose cells (crystal violet); format: cell-based; settings: Homo sapiens, HeLa, 72 h, 72 hours incubation, crystal violet staining, absorbance at 590 nm
Protocol: The cervical tumor cell line HeLa (ATCC, CCL-2) was cultivated in DMEM medium (Invitrogen cat. no. 11971, 4.5 g/L high glucose) containing 10% fetal calf serum (Sigma cat. no. F9665) and 1% Penicillin/Streptomycin (Sigma cat. no. P0781) at 37° C. in 5% CO2. HeLa galactose cells (i.e. HeLa cells that grow in high concentrations of galactose) were generated from HeLa glucose cells (i.e. HeLa cells that grow in high concentrations of glucose) by gradually changing the amount of glucose in the media to zero glucose in the presence of galactose as a sugar source (50% galactose/50% glucose media for one week, then 75% galactose/25% glucose media for one week, to 100% galactose media in the third week). Galactose media (Invitrogen cat. no. 11966) was supplemented with 10 mM galactose (Sigma cat. no. G5388).
Cell Growth and Proliferation Assay of HeLa Galactose and Glucose Cells
HeLa galactose cells and HeLa glucose cells were seeded in 96 well plates (TPP, cat. no 92696) at 2000 and 1500 cells/well, respectively, in 100 μL of complete medium. After overnight incubation the cells were incubated for 72 hours in complete medium containing 0.001% DMSO or compounds (final concentration of DMSO 0.001%). After the medium was removed, cells were fixed and stained by adding 50 μL crystal violet staining (0.2% crystal violet (Sigma-Aldrich cat. no. C0775) in 50% methanol) per well. The plates were incubated for 1 hour at room temperature. Subsequently the stain was decanted and plates were washed 4 times with de-mineralized water. Plates were air-dried for 2 hours. The stain was dissolved by adding 100 μL buffer (0.1 M Tris pH 7.5, 0.2% SDS, 20% ethanol) per well and shaking the plates. Absorbance at 590 nm was measured using a SpectraMax® 250 plate reader (Molecular Devices). Antiproliferative/growth inhibition IC50s were calculated from concentration-response curves using GraphPad Prism software.

| Compound | IC50 ([1]; 5 h) | IC50 (HeLa galactose cells) | IC50 [1] |
| --- | --- | --- | --- |
| O=C(Nc1nc(CCO)ns1)N1CCC(=Cc2ccc(Cl)cc2F)CC1 [Example 78, 4-[(4-chloro-2-fluoro-phenyl)methylene]-N-[3-(2-hydroxyethyl)-1,2,4-thiadiazol-5-yl]piperidine-1-carboxamide] | 0.267 µM | 0.163 µM |  |
| COc1cc(F)c(C=C2CCN(C(=O)Nc3nc(C)ns3)CC2)c(F)c1 [Example 97, 4-[(2,6-difluoro-4-methoxy-phenyl)methylene]-N-(3-methyl-1,2,4-thiadiazol-5-yl)piperidine-1-carboxamide] | 0.03 µM | 0.028 µM |  |
| Cc1nsc(NC(=O)N2CCC(=Cc3ccc(F)cc3F)CC2)n1 [Example 59, 4-[(2,4-difluorophenyl)methylene]-N-(3-methyl-1,2,4-thiadiazol-5-yl)piperidine-1-carboxamide] | 0.043 µM | 0.041 µM |  |
| Cc1nsc(NC(=O)N2CCC(Cc3ccc(Cl)cc3N)CC2)n1 [Example 24] | 0.307 µM | 0.138 µM |  |
| Cc1nsc(NC(=O)N2CCN(Cc3ccc(Cl)cc3F)CC2)n1 [Example 50, 4-[(4-chloro-2-fluoro-phenyl)methyl]-N-(3-methyl-1,2,4-thiadiazol-5-yl)piperazine-1-carboxamide] | 0.255 µM | 0.197 µM |  |
| Cc1nsc(NC(=O)N2CCC(C(=O)c3ccc(Cl)cc3)CC2)n1 [Example 74, 4-(4-chlorobenzoyl)-N-(3-methyl-1,2,4-thiadiazol-5-yl)piperidine-1-carboxamide] | 0.051 µM | 0.034 µM |  |
| O=C(Nc1ccnc(C2CC2)c1)N1CCC(=Cc2ccc(Cl)cc2F)CC1 [Example 183, 4-[(4-chloro-2-fluoro-phenyl)methylene]-N-(2-cyclopropyl-4-pyridyl)piperidine-1-carboxamide] | 0.042 µM | 0.021 µM |  |
| COc1cc(F)c(CC2CCN(C(=O)Nc3nc(C)ns3)CC2)c(F)c1 [Example 98, 4-[(2,6-difluoro-4-methoxy-phenyl)methyl]-N-(3-methyl-1,2,4-thiadiazol-5-yl)piperidine-1-carboxamide] | 0.076 µM | 0.039 µM |  |
| CNc1ccc(C=C2CCN(C(=O)Nc3nc(C)ns3)CC2)c(F)c1 [Example 109] | 0.103 µM | 0.055 µM |  |
| N#Cc1cc(F)c(C=C2CCN(C(=O)Nc3ccnc(C4CC4)c3)CC2)c(F)c1 [Example 182, 4-[(4-cyano-2,6-difluoro-phenyl)methylene]-N-(2-cyclopropyl-4-pyridyl)piperidine-1-carboxamide] | 0.108 µM | 0.013 µM |  |
| Cc1nsc(NC(=O)N2CCC(=Cc3c(F)cc(C#N)cc3F)CC2)n1 [Example 95, 4-[(4-cyano-2,6-difluoro-phenyl)methylene]-N-(3-methyl-1,2,4-thiadiazol-5-yl)piperidine-1-carboxamide] | 0.03 µM | 0.02 µM |  |
| O=C(Nc1ncns1)N1CCC(Cc2ccc(Cl)cc2F)CC1 [Example 48] | 0.278 µM | 0.146 µM |  |
| O=C(Nc1nc(CCN2CCOCC2)ns1)N1CCC(=Cc2ccc(Cl)cc2F)CC1 [Example 79, 4-[(4-chloro-2-fluoro-phenyl)methylene]-N-[3-(2-morpholinoethyl)-1,2,4-thiadiazol-5-yl]piperidine-1-carboxamide] | 0.378 µM | 0.279 µM |  |
| Cc1nsc(NC(=O)N2CCC(=Cc3ccc(NCCCN)cc3F)CC2)n1 [Example 102] | 0.395 µM | 0.189 µM |  |
| Cc1nsc(NC(=O)N2CCCC(Cc3c(F)cc(N(C)C)cc3F)CC2)n1 (stereo not drawn) [Example 121, 4-[[4-(dimethylamino)-2,6-difluoro-phenyl]methyl]-N-(3-methyl-1,2,4-thiadiazol-5-yl)azepane-1-carboxamide] | 0.054 µM | 0.02 µM |  |
| Cc1nsc(NC(=O)N2CCC(=Cc3ccc(NCCN)cc3F)CC2)n1 [Example 101, 4-[[4-(2-aminoethylamino)-2-fluoro-phenyl]methylene]-N-(3-methyl-1,2,4-thiadiazol-5-yl)piperidine-1-carboxamide] | 0.412 µM | 0.251 µM |  |
| Cc1nsc(NC(=O)N2CCC/C(=C/c3ccc(Cl)cc3F)CC2)n1 [Example 118, (4Z)-4-[(4-chloro-2-fluoro-phenyl)methylene]-N-(3-methyl-1,2,4-thiadiazol-5-yl)azepane-1-carboxamide] | 0.07 µM | 0.043 µM |  |

| Compound | IC50 ([1]; 5 h) | IC50 (HeLa galactose cells) | IC50 [1] |
| --- | --- | --- | --- |
| Nc1nsc(NC(=O)N2CCC(Cc3ccc(Cl)cc3F)CC2)n1 [Example 108, N-(3-amino-1,2,4-thiadiazol-5-yl)-4-[(4-chloro-2-fluoro-phenyl)methyl]piperidine-1-carboxamide] | 0.132 µM | 0.096 µM |  |
| Cc1nsc(NC(=O)N2CCC(Cc3ccc(OC(F)(F)F)cc3)CC2)n1 [Example 53] | 0.89 µM | 0.329 µM |  |
| Cc1cc(NC(=O)N2CCC(Cc3ccc(Cl)cc3F)CC2)ccn1 [Example 72, 4-[(4-chloro-2-fluoro-phenyl)methyl]-N-(2-methyl-4-pyridyl)piperidine-1-carboxamide] | 0.068 µM | 0.034 µM |  |
| Cc1nsc(NC(=O)N2CCC(=Cc3c(F)cc(N(C)C4CCOC4)cc3F)CC2)n1 (stereo not drawn) [Example 157] | 0.109 µM | 0.051 µM |  |
| Cc1nsc(NC(=O)N2CCC(Cc3ccc(Cl)cc3)CC2)n1 [Example 2] | < 0.1 µM | 0.041 µM |  |
| Cc1nsc(NC(=O)N2CCC(=Cc3ccc(C(F)(F)F)cc3F)CC2)n1 [Example 38] | 0.131 µM | 0.061 µM |  |
| COc1ccc(CC2CCN(C(=O)Nc3nc(C)ns3)CC2)c(C)c1 [Example 13, 4-[(4-methoxy-2-methyl-phenyl)methyl]-N-(3-methyl-1,2,4-thiadiazol-5-yl)piperidine-1-carboxamide] | 0.345 µM | 0.307 µM |  |
| COc1ccc(C(=O)C2CCN(C(=O)Nc3nc(C)ns3)CC2)c(F)c1 [Example 140, 4-(2-fluoro-4-methoxy-benzoyl)-N-(3-methyl-1,2,4-thiadiazol-5-yl)piperidine-1-carboxamide] | 0.094 µM | 0.043 µM |  |
| Cc1cc(NC(=O)N2CCC(Cc3c(F)cc(C(F)(F)F)cc3F)CC2)ccn1 [Example 139] | 0.152 µM | 0.022 µM |  |
| Cc1nsc(NC(=O)N2CCCC(Cc3ccc(Cl)cc3F)CC2)n1 (stereo not drawn) [Example 49, 4-[(4-chloro-2-fluoro-phenyl)methyl]-N-(3-methyl-1,2,4-thiadiazol-5-yl)azepane-1-carboxamide] | 0.058 µM | 0.021 µM |  |
| CCc1nsc(NC(=O)N2CCC(=Cc3c(F)cc(N(C)C)cc3F)CC2)n1 [Example 149, 4-[[4-(dimethylamino)-2,6-difluoro-phenyl]methylene]-N-(3-ethyl-1,2,4-thiadiazol-5-yl)piperidine-1-carboxamide] | 0.013 µM | 0.011 µM |  |
| Cc1nsc(NC(=O)N2CCC(Cc3ccc(Cl)cc3F)C(C)C2)n1 (single isomer, unassigned) [Example 84a, 4-[(4-chloro-2-fluoro-phenyl)methyl]-3-methyl-N-(3-methyl-1,2,4-thiadiazol-5-yl)piperidine-1-carboxamide] |  | 0.047 µM | 0.057 µM |
| Cc1nsc(NC(=O)N2CCC(Cc3ccc(F)cc3F)CC2)n1 [Example 60, 4-[(2,4-difluorophenyl)methyl]-N-(3-methyl-1,2,4-thiadiazol-5-yl)piperidine-1-carboxamide] | 0.068 µM | 0.053 µM |  |
| COc1cc(CC2CCN(C(=O)Nc3nc(C)ns3)CC2)c(F)cc1Cl [Example 65] | 0.126 µM | 0.05 µM |  |
| Cc1nsc(NC(=O)N2CCCC(=Cc3ccc(C#N)cc3F)CC2)n1 [Example 117] | 0.145 µM | 0.077 µM |  |
| Cc1nsc(NC(=O)N2CCC(Cc3ccc(N)cc3)CC2)n1 [Example 4, 4-[(4-aminophenyl)methyl]-N-(3-methyl-1,2,4-thiadiazol-5-yl)piperidine-1-carboxamide] | 0.4 µM | 0.46 µM |  |

Source: US20190142810A1, “MITOCHONDRIAL INHIBITORS FOR THE TREATMENT OF PROLIFERATION DISORDERS” (Basilea Pharmaceutica International AG, priority 2016, published 2019)
